Measurements as given in ChEMBL document CHEMBL6103673, “Novel 1,6-Naphthridine Compounds as SMARCA2 Inhibitors for Treating Non-small Cell Lung Cancer” (ACS Med Chem Lett, 2025).
pIC50: −log10 of the molar value.

test: Inhibition of SMARCA2/SMARCC1/SMARCC2/SMARCB1 (unknown origin) using ATP/nucleosome mix as substrate preincubated for 30 mins followed by substrate addition and measured after 180 mins by ADP-Glo assay; parameters: species or system Homo sapiens

SMILES | pIC50
Cc1ccc(NC(=O)Cc2cc3cc(-c4cccc(N5C[C@@H](C)O[C@@H](C)C5)n4)ccc3cn2)cc1S(C)(=O)=O | 9.32
C[C@@H]1CN(c2cccc(-c3ccc4cnc(CC(=O)N[C@@H]5CN(S(=O)(=O)C(F)F)CC(F)(F)C5)cc4n3)n2)C[C@H](C)O1 | 9.37
C[C@@H]1CN(c2cccc(-c3ccc4cnc(CC(=O)N[C@@H]5C[C@@H](F)CN(S(=O)(=O)C(F)F)C5)cc4n3)n2)C[C@H](C)O1 | 9.30
C[C@@H]1CN(c2cccc(-c3ccc4cnc(CC(=O)Nc5cccc(S(=O)(=O)C(F)F)c5)cc4n3)n2)C[C@H](C)O1 | 9.35
C[C@@H]1CN(c2cccc(-c3ccc4cnc(CC(=O)N[C@@H]5CCN(S(=O)(=O)C(F)F)C5)cc4c3)n2)C[C@H](C)O1 | 9.28
C[C@@H]1CN(c2cccc(-c3ccc4cnc(CC(=O)N[C@@H]5C[C@H](C)N(S(=O)(=O)C(F)F)C5)cc4c3)n2)C[C@H](C)O1 | 9.48
